For the test, the target named is T1, RARγ (Homo sapiens, UniProt P13631).
T1 sequence (P13631 185-419 limits assumed): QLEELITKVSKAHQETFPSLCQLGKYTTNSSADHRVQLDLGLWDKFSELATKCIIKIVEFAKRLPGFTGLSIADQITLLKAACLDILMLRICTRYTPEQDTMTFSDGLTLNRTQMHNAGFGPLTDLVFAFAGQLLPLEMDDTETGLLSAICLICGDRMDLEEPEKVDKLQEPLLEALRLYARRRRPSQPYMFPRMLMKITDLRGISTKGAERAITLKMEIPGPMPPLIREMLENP
Kind of test: chimeric receptor transactivation assay, RARγ. The test is classed as cell-based. An excerpt:
The specification of U.S. Pat. No. 5,455,265 is hereby expressly incorporated by reference.
Table 1 discloses the activity of certain exemplary compounds of the invention in the above-described receptor transactivation and binding assays. Particularly, the transactivation data pertaining to activation of the RAR receptors were obtained in the chimeric assay, and the transactivation data pertaining to the activation of RXR receptors were obtained in the holoreceptor assay.
Efficacy in a transactivation assay is expressed as a percentage of the maximum potency attained by the compound compared to a standard which, in this case, is the compound named (2E,4E,1′S,2′S)-3-methyl-5-[2′-methyl-2′-(5,5,8,8-tetramethyl-5,6,7,8-tetrahydro-naphthalen-2-yl)-cyclopropyl]-penta-2,4-dienoic acid.
In Table 1 NA stands for not active at all as an agonist. ND stands for not determined. The first row of numbers pertaining to each compound is the measured EC50 number. […] The third row of numbers pertaining to each compound is the binding Ki number.

For `CCCOc1cc2c(cc1\C(C)=C(F)/C=C/C(C)=C/C(=O)O)C(C)(C)CCC2(C)C` [Compound 4], the EC50 (NA = not active at all as an agonist, read-out: RAR Trans. EC50 γ) is greater than 1000 nM. Where the note is “number in brackets”, the “RAR γ efficacy in percentage as compared to the standard compound” value was 15%.

Source of the values: patent US7019034B2, “Compositions and methods for reducing serum glucose and triglyceride levels in diabetic mammals” (Allergan, Inc., priority 2003, dated 2006).
